Patent US20190314353A1, “Pharmaceutical Compositions Comprising Alpelisib” (Novartis AG, priority 2014, published 2019)

Assays:
[1] = system: PIK3CA-mutant or amplified tumor xenograft models; assay: In vivo antitumor activity in tumor xenograft models; details: xenograft models such as breast, head and neck, and ovarian cancers
Text: (§1) (hereinafter, “Compound I”). […] As of Mar.

[2] = system: advanced solid malignancies carrying an alteration in the PIK3CA gene; assay: Phase I clinical trial, single agent treatment, radiologic response (RECIST 1.0); assay type: in vivo, human; details: out of 131 patients evaluable for radiologic response, as of Mar. 10, 2014
Text: as §1

Cc1nc(NC(=O)N2CCC[C@H]2C(N)=O)sc1-c1ccnc(C(C)(C)C(F)(F)F)c1 [Compound I, (S)-Pyrrolidine-1,2-dicarboxylic acid 2-amide 1-({4-methyl-5-[2-(2,2,2-trifluoro-1,1-dimethyl-ethyl)-pyridin-4-yl]-thiazol-2-yl}-amide)]
in vivo antitumor activity [1]: dose-dependent antitumor activity | patients with partial response to treatment ([2]; PIK3CA-altered solid tumors): 15 patients | patients with stable disease [2]: 68 patients
